Test results from US9040481B2, “Methods for treating steatotic disease” (The General Hospital Corporation, priority 2010, dated 2015).
Each block holds one substance with its values, some of them ahead of it. Where no end group is shown, it is not given here. FAM = 5-carboxyfluorescein (5-FAM), fluorescent label attached at the amino terminus

What was measured:
[1] = tested on: hepatocytes isolated from ob/ob mice; type: cell-based, mouse; details: for specificity of intracellular transport: distribution versus pattern of mitotracker: Ob/Ob hepatocytes, 18 hours, 1 microM FAM peptide, 1 microM Mitotracker, 25 mM glucose
Description: GLP-1(28-36)amide (FIAWLVKGRamide (SEQ ID NO:1) and the GLP-1(28-37) Arg-34 glycine extended (FIAWLVRGRG (SEQ ID NO:4)) peptides were prepared by solid phase synthesis and purified by sequential HPLC to >98% single component homogeneity. Verification of the peptides was done by both amino acid composition analysis and by mass spectroscopy. Fluorescent-labeled GLP-1(28-36)amide was prepared with the green fluorescence compound, 5-carboxyfluorescein (5-FAM, fluorescein amidite) and added to hepatocytes isolated from the liver of an ob/ob mouse along with Mitotracker, a specific red fluorochrome mitochondrial marker from Molecular Probes (AnaSpec, Fremont Calif.). The mitotracker compound used requires oxidation to develop fluorescence emission and fluoresces only if cells are viable and actively respiring. The oxidized red fluorochrome stains mitochondria of live and poorly respiring cells (RedCMXRos #7512) and the reduced red fluorochrome stains only actively respiring cells (Red CM-H2XRos #7513).
Mitochondrial localization was evaluated as follows, Hepatocytes were isolated from ob/ob mice and diet-induced obese (DIO) mice and plated overnight on 4 well glass slides (NUNC, Inc., IL) in maintenance medium (12), Next day cells were treated with 10 microM PAM-labeled GLP-1 (28-36)amide peptide (FAM-FIAWLVKGRamide (SEQ ID NO:1)) and 50 nM MitoTracker Red CM-H2Ros for 5 minutes in no dye, no PBS, 5 mM Glucose DMEM medium. Cells were washed with the same medium and images were taken 15 minutes later using Nikon Diaphot 300 inverted microscope SPOT RT camera and SPOT 3.3.1 software (Diagnostic Instruments, Inc., MI).
Whether intracellular transport of FAM-GLP-1(28-36)amide is specific for […] was evaluated in hepatocytes isolated from Ob/Ob mice and treated for 18 hours with 1 microM Mitotracker Red CM-H2XRos and 1 microM of TAM labeled GLP-1 (28-36) peptide or irrelevant peptide controls: synapsin I-derived petide (FAM-LRRRISDANFamide (SEQ NO:13)), AnaSpec Cat #61756; IP3R-derived peptide (FAM-GRRESLTSFGamide (SEQ ID NO:14)), AnaSpec cat. #61731; or angiotensin I peptide (FAM-DRVYIHPFHL (SEQ ID NO:15)), AnaSpec cat. #61185, in 25 mM glucose maintenance medium. Irrelevant peptides were obtained from AnaSpec, Fremont, Calif. Celts were washed with 25 mM glucose Krebs-Ringer buffer. Images were taken using Nikon Diaphot 300 inverted microscope SPOT RT camera and SPOT 3.3.1 software (Diagnostic Instruments, Inc., MI).

[2] = tested on: isolated mouse hepatocytes
[3] = mouse, in vivo
[4] = mouse, in vivo; remark: listed apart in the source

Substance: FAM-DRVYIHPFHL ({FAM}-DRVYIHPFHL) [angiotensin I peptide, irrelevant peptide control, AnaSpec cat. #61185]
specificity of intracellular transport: distribution versus pattern of mitotracker [1]: do not distribute in hepatocytes with the pattern of distribution of mitotracker

Substance: FAM-FIAWLVKGRamide ({FAM}-FIAWLVKGR-NH2; UniProt P01275 119-127, looked up, fragment) [FAM-GLP-1(28-36)amide, GLP-1(28-36)amide labeled at the amino-terminus with 5-carboxyfluorescein (FAM)]
specificity of intracellular transport: distribution versus pattern of mitotracker [1]: appears to be specific for GLP-1(28-36)amide

Substance: FAM-GLP-1: fluorescence-labeled GLP-1
binding to the surface of isolated mouse hepatocytes [2]: no binding

Substance: FAM-GRRESLTSFGamide ({FAM}-GRRESLTSFG-NH2) [IP3R-derived peptide, irrelevant peptide control, AnaSpec cat. #61731]
specificity of intracellular transport: distribution versus pattern of mitotracker [1]: do not distribute in hepatocytes with the pattern of distribution of mitotracker

Substance: FAM-LRRRISDANFamide [synapsin I-derived petide]
specificity of intracellular transport: distribution versus pattern of mitotracker [1]: do not distribute in hepatocytes with the pattern of distribution of mitotracker

Substance: FAM-glucagon: FAM-labeled control hormone known to have receptors on hepatocytes
binding to the surface of isolated mouse hepatocytes [2]: readily binds to the surface of hepatocytes

time to enter stressed hepatocytes [1]: ≤ 15 min
MCR of the peptide [3]: 40 to 50 mL/min
activities of the mice [4]: no observable change in the activities
Substance: FIAWLVKGR-NH2 [GLP-1(28-36)amide, FIAWLVKGRamide]
mechanism of transport into hepatocytes (GLP-1 receptor): occurs by GLP-1 receptor-independent mechanisms
